Measured values published in patent US20130209439A1, “INHIBITORS OF PDE4 BINDING TO HSP20” (THE UNIVERSITY COURT OF THE UNIVERSITY OF GLASGOW, priority 2010, published 2013).

Experiments:
[1] = test system: cAMP in the vicinity of HSP20; assay: cAMP FRET with cytosolic and HSP20-targeted reporters in cardiac myocytes; type: cell-based, rat
Excerpt: FIG. 5. Measurement of relative cAMP concentration in the vicinity of HSP20 using targeted cAMP FRET probes. A, Representative traces showing FRET ratios that indicate relative cAMP concentrations measured by cytosolic and HSP20 targeted cAMP reporter constructs. B, Upper panel, graphical depiction of maximum FRET ratios achieved using both cytosolic and HSP20-targeted probes following treatment with isoprenaline (Iso), rolipram (Roli) and IBMX. Lower panel, images of the localisation of cytosolic and HSP20-targeted cAMP reporter constructs.
The Hsp20-targeted cAMP FRET probe was generated by cloning the Hsp20 open reading frame, excluding the stop codon, immediately 5′ to the EPACG-based FRET sensor^55. Hsp20 open reading frame was amplified from the Ultimate™ ORF clone IOH57317 (Invitrogen) using the following primers to incorporate HindIII restriction sites at both 5′ and 3′ ends: Forward 5′-gcacaagctt[…]-3′ (SEQ ID NO: 70) Reverse 5′-gcacaagctt[…]-3′ (SEQ ID NO: 71). […]
Primary cultures of ventricular cardiac myocytes were prepared from 1-3 day old Sprague-Dawley rats, as described above. […] FRET changes were measured following background subtraction by dividing the intensity of emissions at 480 nm and 545 nm, following excitation at 440 nm. Data are expressed as dR/R0, where R=fret ratio at time t (sec), R0=fret ratio at time zero, and dR=R−R0. […]

[2] = test system: Phospho-Ser16 HSP20 in HEKB2 cells; assay: Ser16 phosphorylation of HSP20 in HEKB2 cells overexpressing HSP20 (Western blot); type: cell-based; conditions: HEKB2 cells
Experimental: FIG. 1. The phosphorylation of HSP20 at Ser16 is modulated by PDE4 activity in HEKB2 cells. A, HEKB2 cells overexpressing HSP20 or HSP20 ser16-Ala mutant were treated with isoprenaline for indicated times. Cellular lysates were blotted for HSP20 and Phospho-Ser16 HSP20. B, HEKB2 cells overexpressing HSP20 were treated with isoprenaline for indicated times, Cellular lysates were blotted for HSP20 and Phospho-Ser16 HSP20. C, HEKB2 cells overexpressing HSP20 were treated with isoprenaline for indicated times following pre-treatment with the PDE4-specific inhibitor, rolipram. Cellular lysates were blotted for HSP20 and Phospho-Ser16 HSP20. D, Quantifications of data from FIGS. 1B and 1C (n=4). * Denotes significance at a level p<0.05 E, Lysate from untransfected HEKB2 cells was blotted for HSP20 and Phospho-Ser16 HSP20.
(§1) HEK293B2 cells are a stable cell line overexpressing the GFP-tagged β2AR were cultured as previously described^48. HEK293B2 cells were transiently transfected with wild type HSP20 or a phosphorylation defective HSP20 (S16A) or a phosphorylation mimic HSP20 (S16D). Neonatal cardiac myocytes were prepared and cultured as previously described^30. Cell lysis, immunopurification and western blotting was done as described before by us in some detail^48. Briefly, HEK 293 cells were transiently transfected with wild-type HSP20 by using Polyfect Transfection Reagent (Qiagen). Transfected HEK 293 cells were treated with 10 μM bs906 or 10 μM control peptide for 0, 15, 30, 60 and 120 min. Control and treated transfected HEK 293 cells were then washed thrice with ice cold PBS (phosphate buffered saline) before cellular lysates were prepared. Cellular lysates were prepared in lysis buffer containing 25 mM Hepes, pH 7.5, 2.5 mM EDTA, 50 mM NaCl, 50 mM NaF, […], 10% (v/v) glycerol, 1% (v/v) Triton X-100 and Complete™ EDTA-free protease inhibitor cocktail tablets (Roche). Protein concentration of lysates were determined using the Bradford assay and all samples were equalised for protein concentration. Proteins were separated by SOS/PAGE (4-12% Bis-Tris gels) and transferred onto nitrocellulose membranes for Western blotting. Antibodies were used to detect phospho-proteins and native proteins in lysates from control and treated cells
In contrast to this, when we transfected these cells with a phospho-null mutant form, Ser16Ala-Hsp20, then no such change was observed (FIG. 1A). In order to evaluate whether PDE4 activity played a role in regulating this phosphorylation process in Hsp20-transfected HEKB2 cells, cells that had either been pre-treated or not with the PDE4 selective inhibitor rolipram were subsequently challenged with isoprenaline (1 μM) (FIGS. 1B and C). […] Endogenous levels of phospho-HSP20 or HSP20 were not detectable in HEKB2 cells (FIG. 1E).

[3] = test system: Phospho-Ser16 HSP20 in neonatal cardiac myocytes; assay: Ser16 phosphorylation of endogenous HSP20 in neonatal cardiac myocytes (Western blot); type: cell-based, rat
Experimental: FIG. 2. The phosphorylation of HSP20 at Ser16 is modulated by PDE4 activity in cardiac myocytes. A, Neonatal cardiac myocytes were treated with isoprenaline for indicated times with or without pre-treatment with the PDE4-specific inhibitor, rolipram. Cellular lysates were blotted for HSP20 and Phospho-Ser16 HSP20. B, Quantifications of data from FIG. 2A (n=3). * Denotes significance at a level p<0.05 over iso treatment.
as §1
To determine whether inhibition of PDE4 activity had similar effects on endogenous phospho-HSP20 levels in heart cells, similar experiments were undertaken using neonatal cardiomyocytes (FIG. 2).

[4] = biological target: T1, His-Hsp20 (Homo sapiens, UniProt O14558); assay: SPOT peptide array overlaid with His-Hsp20; type: binding; conditions: overlay with 10 μg/ml purified His-Hsp20
T1 construct: made in house; host or cells: E. coli BL21
T1 sequence (O14558 1-160): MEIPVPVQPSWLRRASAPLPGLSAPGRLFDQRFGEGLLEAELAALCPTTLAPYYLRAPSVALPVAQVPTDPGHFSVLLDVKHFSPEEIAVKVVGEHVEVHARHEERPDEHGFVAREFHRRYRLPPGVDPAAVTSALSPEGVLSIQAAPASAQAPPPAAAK
Experimental: A variety of peptides were generated and SPOT-synthesised onto slides which were then overlaid with 10 μg/ml of purified His-Hsp20. Interaction with peptides and Hsp20 was evaluated by probing slides with anti-His or Hsp20 antibodies and analysed using enhanced chemi-luminescence techniques, Negative controls used anti-His antibody only with no overlay of His-Hsp20 protein (data not shown). Positive interaction domains were then subjected to further rounds of truncations and key endogenous residues were substituted for non-native residues to ascertain what effects this would have in the binding of Hsp20.
This was done as described in detail elsewhere^41.
PDE4 isoform localisation invariably depends on protein-protein interactions, with PDE4s shown to associate with a diverse group of interacting partners such as RACK1^32, 36, βarrestin^36, β1-Ar^37, DISC1^38, the p75 neurotrophin receptor^39 and the cardiac IKs potassium channel^40. One method that has been pivotal in mapping the sites of association between PDE4s and their binding partners is peptide array^36. SPOT immobilised peptide libraries of PDE4 sequences have been utilised to accurately predict binding domains for partner proteins. Here we have employed this novel technique to define the HSP20 binding site within the sequence of PDE4D5, an isoform that is endogenously expressed in cardiomyocytes. Peptide arrays of overlapping 25-mer peptides, sequentially shifted by 5 amino acids and spanning the entire sequence of PDE4D5, were incubated with purified recombinant HSP20-6his. Dark spots represent positive areas of HSP20 interaction whereas clear spots are negative for the association (FIG. 4A). While no signal was observed when the arrays were overlaid with BSA, positive signals were obtained for 25mer peptides 93 to 96 following HSP20-6His overlay. Peptides 93 to 96 span the amino acid sequence Y^461-K^500 within the conserved catalytic domain of PDE4D5 (FIG. 4A: middle panels). […]

[5] = test system: pS16-Hsp20 in SH-SY5Y cells; assay: Cell based Hsp20-PDE4D disruptor assay, nucleofected SH-SY5Y cells, pS16-Hsp20 Western blot; parameters: species or system human; conditions: SH-SY5Y cells nucleofected with 500 μM peptide, 2 hours
Experimental: FIG. 9. Disrupter induced HSP20 phosphorylation SH-SY5Y cells nucleofected with 500 μM of each peptide and incubated for 2 hours prior to harvesting. Each assay was blotted for Hsp20, pS16-Hsp20 and tubulin. Changes in levels of phospho-Hsp20 relative to DMSO only controls were quantified through densitometry analysis and each assay was normalised to α-tubulin loading control. The results are the average of three separate experiments and error bars represent SEM. *=p<0.05, **=p<0.01 compared to DMSO only controls (Student-T-test)
SDS-PAGE analysis was done on NuPage® pre-cast gels X-cell apparatus (Invitrogen, Paisley) using MES-SDS running buffer, Samples were reduced in Laemmli 2× loading buffer (4% SOS) with 5% β-mercaptoethanol. For Western Blotting (WB) analysis, samples were transferred using NuPage® X-cell blotting module onto a nitrocellulose membrane. Membranes were blocked using 5% Milk in 1×TBST (w/v). Antibodies were incubated in 1% milk in 1×TBST (w/v) for either 1 hour at room temperature or overnight at 4° C. Signals were detected using enhanced chemiluminescence system (Pierce) and developed on an X-omat film developer. Subsequent densitometry analysis was carried out using Quantity One (Bio-Rad).
SH-SY5Y cells (ATCC-CRL-2266) were grown in Dulbecco's Modified Eagle's Medium (DMEM) and F12-Ham's at a 1:1 ratio, media was supplemented with 10% (v/v) fetal bovine serum (FBS), 1% (v/v) L-Glutamine, 1% (v/v) Minimum Essential Medium—With Non-essential Amino Acids (MEM-NAA) and 1% (v/v) Pen/strep. Cells were cultured in a humidified, 5% (v/v) CO2, 37° C. incubator.
SH-SY5Y cells were nucleofected using Cell Line Nucleofector® Kit-V in accordance with manufacturers protocol (Amaxa Biosystems). Setting A-23 on the Nucleofector I device was used which increases cell viability. For each assay, 500 μM of disrupter peptide was incubated with 100 μl of nucleofection solution containing approximately 2×10^6 cells. After nucleofection cells were re-suspended in 500 μl of culture media before being transferred to a 6 well plate with a final volume of 2 ml per well. Cells were incubated for 2 hours prior to harvesting with […] containing protease and phosphatase inhibitors (Roche).
As the cell permeability of the peptides is unknown we used an electroporation technique to introduce the peptides into the SH-SY5Y cells. The Amaxa cell-line specific Nucleofector Kit V (Lonza) was used to transfect the peptides into the cells. […] Each assay used a final concentration of 500 μM of peptide in nucleofector solution containing approximately 2×10^6 SH-SY5Y cells. As peptides were dissolved in 100% DMSO, control transfections with DMSO only were used to compare any changes in phospho-Hsp20 levels. After each transfection the solution was reconstituted in culture media and incubated for 2 hours to allow for cell adhesion prior to the harvesting of viable cells.

## CC(C)Cn1c(=O)n(C)c(=O)c2[nH]cnc21 [IBMX]
[1]
  cAMP FRET response, HSP20-targeted reporter compared with cytosolic probe: identical maximal response

## COc1ccc(C2CNC(=O)C2)cc1OC1CCCC1 (stereo not drawn) [rolipram]
[2]; rolipram pre-treatment then isoprenaline 1 μM
  isoprenaline-stimulated HSP20 phosphorylation: increased isoprenaline-stimulated HSP20 phosphorylation
[2]; rolipram treatment alone
  phospho-HSP20 levels compared to resting cells: clear increase in phospho-HSP20 levels
[1]
  cAMP FRET response, HSP20-targeted reporter compared with cytosolic probe: clearly greater in the HSP20 targeted reporter
[3]; cardiomyocytes, PDE4 inhibition alone
  phospho-HSP20 levels: marked increase in phospho-HSP20 levels
[3]; neonatal cardiomyocytes, rolipram pre-treatment
  isoprenaline-induced increase in endogenous phospho-HSP20 levels: markedly augmented

## Ac-FQNLTR-NH2 [Peptide 5]
[4]
  binding of Hsp20 to peptide on array: shown to bind HSP20
[5]
  pS16-Hsp20 levels relative to DMSO only controls: inability

## Ac-GFK-NH2 (Ac-Gly-Phe-Lys-NH2) [Peptide 17]
[4]
  binding of Hsp20 to peptide on array: shortest size
[5]
  pS16-Hsp20 levels relative to DMSO only controls: indistinguishable from DMSO only controls

## Ac-KLL-NH2 (Ac-Lys-Leu-Leu-NH2) [Peptide 10]
[4]
  binding of Hsp20 to peptide on array: shortest size
[5]
  pS16-Hsp20 levels relative to DMSO only controls: indistinguishable from DMSO only controls
